# Key:
# Format in all cases: cell-based
# SERT = test: [3H]5-HT transport assay in mouse brain synaptosomes; conditions: for effect on IB-MECA (10 nM) stimulated 5-HT uptake: inhibitor 10 min before IB-MECA, MRS1191 1 μM, DT-2 1.0 μM, H8 0.1 μM, SB203580 1.0 μM
# GABA transport activity = test: [3H]GABA uptake in mouse striatal and midbrain synaptosomes; conditions: 10 min
# dopamine transporter = test: [3H]DA uptake in mouse striatal and midbrain synaptosomes; conditions: 10 min
# [1] = midbrain synaptosomes, IB-MECA 10 nM 10 min, MRS1191 1 μM 10 min before IB-MECA, Michaelis-Menten fit, mean (n=3) ±SEM
compound,measurement,setting,value
"CCOC(=O)C1=C(C)NC(c2ccccc2)=C(C(=O)OCc2ccccc2)C1C#Cc1ccccc1 (racemic) [MRS1191, 3-ethyl-5-benzyl-2-methyl-phenylethynyl-6-phenyl-1,4(±)dihydropyridine-3,5-dicarboxylate]",effect on IB-MECA (10 nM) stimulated 5-HT uptake,SERT; midbrain synaptosomes,prevented the stimulatory actions of IB-MECA on 5-HT uptake
same,effect alone on basal 5-HT transport,"SERT; synaptosomes, 0.01-100 μM, data not shown",did not influence basal 5-HT transport
"CNCCNS(=O)(=O)c1cccc2cnccc12 [H8, N-[2-(methylamino)ethy]-5-isoquinoline-sulfonamide]",effect on IB-MECA (10 nM) stimulated 5-HT uptake,SERT; midbrain synaptosomes,blocked IB-MECA regulation of SERT
"CCNC(=O)C1OC(n2cnc3c(N)ncnc32)C(O)C1O (stereo not shown) [NECA, 5′-N-ethyl-carboxamidoadenosine]",effect on SERT activity,"SERT; midbrain synaptosomes, 10 min at 37° C.",fails to stimulate SERT activity
same,effect on 5-HT transport at high concentration,"SERT; midbrain synaptosomes, concentrations above 1 μM",inhibited 5-HT transport
"C[C@H](Cc1ccccc1)Nc1ncnc2c1ncn2[C@@H]1O[C@H](CO)[C@@H](O)[C@H]1O [R-PIA, (R)—N^6-phenylisopropyladenosine]",impact on 5-HT transport,"SERT; midbrain synaptosomes, 1~1000 nM, 10 min at 37° C.",No impact
N6-(3-iodobenzyl)-N-methyl-5′carbamoyladenosine [IB-MECA],effect on GABA uptake,GABA transport activity,no stimulation
same,effect on DA uptake,dopamine transporter,no stimulation
same,increase in 5-HT transport,"SERT; midbrain and hippocampal synaptosomes of A3AR+/+ mice, 10 nM, 10 min",40-50%
same,stimulation of SERT activity in A3AR−/− mice,"SERT; midbrain and hippocampal synaptosomes of A3AR−/− mice, 10 nM, 10 min",failed to stimulate SERT activity
same,effect on SERT Vmax for 5-HT,"SERT; midbrain synaptosomes, 10 nM",significantly increased the SERT Vmax for 5-HT
same,5-HT transport at peak stimulation,"SERT; midbrain synaptosomes, 10 nM, 10 min pretreatment",130-150 % of control levels
same,time at which stimulation of 5-HT uptake reached a maximum,"SERT; midbrain synaptosomes, 10 nM, post-treatment",10 to 20 min
same,concentration at which stimulation of 5-HT transport peaked,"SERT; midbrain synaptosomes, 10 min pretreatment",10 nM
same,Km,SERT; [1],0.8 µM
same,Vmax,SERT; [1],2544+/−281 fmol/mg protein/min
same,effect on 5-HT uptake at high concentration,"SERT; midbrain synaptosomes, exceeding 100 μM, data not shown",induced a decrease in 5-HT uptake
same,SERT activity in striatal synaptosomes,"SERT; striatal synaptosomes, 10 min",IB-MECA-insensitive SERT activity
same,concentration window for stimulation of 5-HT transport,"SERT; synaptosomes, for 20 min",10 to 30 nM
